This passage reports IC50 results from patent US20240199605A1, “SMALL MOLECULAR INHIBITORS OF NF-kB INDUCING KINASE” (Janssen Pharmaceutica NV, priority 2019, published 2024).

The target of assay [1] is recombinant human NF-kappaB-inducing kinase (NIK/MAP3K14) (Homo sapiens (Human), UniProt Q99558). Put plainly: Inhibition of auto-phosphorylation of recombinant human NIK/MAP3K14 (AlphaScreen). The format is biochemical. The following applies: NIK auto-phosphorylation, 5 μM ATP, 1 nM NIK, 2 h at 25° C.; average of values. How it is done: Inhibition of auto-phosphorylation of recombinant human NF-kappaB-inducing kinase (NIK/MAP3K14) activity (AlphaScreen®)
Sequence of recombinant human NF-kappaB-inducing kinase (NIK/MAP3K14) (Q99558 whole entry): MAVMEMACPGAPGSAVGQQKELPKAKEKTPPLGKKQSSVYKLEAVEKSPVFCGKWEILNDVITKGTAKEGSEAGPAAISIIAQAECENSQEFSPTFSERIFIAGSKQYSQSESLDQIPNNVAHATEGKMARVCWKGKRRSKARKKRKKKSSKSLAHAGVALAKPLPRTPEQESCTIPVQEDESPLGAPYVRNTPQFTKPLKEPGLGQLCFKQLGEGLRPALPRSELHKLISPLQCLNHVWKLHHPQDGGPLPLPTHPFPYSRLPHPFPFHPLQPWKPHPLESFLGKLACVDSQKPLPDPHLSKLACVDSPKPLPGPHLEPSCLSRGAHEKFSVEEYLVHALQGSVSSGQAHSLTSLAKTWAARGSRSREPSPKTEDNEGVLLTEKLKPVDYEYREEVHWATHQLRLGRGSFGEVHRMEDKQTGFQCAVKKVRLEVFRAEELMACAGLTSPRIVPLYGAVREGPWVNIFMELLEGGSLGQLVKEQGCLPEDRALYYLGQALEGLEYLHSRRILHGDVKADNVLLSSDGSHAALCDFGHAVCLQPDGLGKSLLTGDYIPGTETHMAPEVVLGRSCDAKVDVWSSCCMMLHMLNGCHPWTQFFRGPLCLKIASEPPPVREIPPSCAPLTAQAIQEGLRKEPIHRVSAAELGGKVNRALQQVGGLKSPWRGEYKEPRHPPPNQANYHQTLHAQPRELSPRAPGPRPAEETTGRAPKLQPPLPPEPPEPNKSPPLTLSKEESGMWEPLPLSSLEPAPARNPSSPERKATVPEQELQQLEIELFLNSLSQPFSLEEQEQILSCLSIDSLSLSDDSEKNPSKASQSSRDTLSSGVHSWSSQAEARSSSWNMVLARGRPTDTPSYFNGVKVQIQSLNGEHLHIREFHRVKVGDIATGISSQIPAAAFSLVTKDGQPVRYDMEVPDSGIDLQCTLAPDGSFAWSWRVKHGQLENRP
NIK/MAP3K14 auto-phosphorylation activity was measured using the AlphaScreen® (αscreen) format (Perkin Elmer). All compounds tested were dissolved in dimethyl sulfoxide (DMSO) and further dilutions were made in assay buffer. The final DMSO concentration was 0.7% (v/v) in assays. The assay buffer was 50 mM Tris pH 7.5 containing 1 mM EGTA (ethylene glycol tetraacetic acid), 1 mM DTT (dithiothreitol), 0.1 mM Na3VO4, 5 mM MgCl2, and 0.01% Tween® 20. The assays were carried out in 384 well Proxiplates (Perkin Elmer). The incubations consisted of the compound, 5 μM Adenosine-5′-triphosphate (ATP), and 1 nM NIK/MAP3K14. Incubations were initiated by the addition of GST-tagged NIK/MAP3K14 enzyme, carried out for 2 h at 25° C. and terminated by addition of stop buffer containing anti-phospho-IKK Ser176/180 antibody. Protein A Acceptor and Glutathione-Donor beads were added before reading using an EnVision® Multilabel Plate Reader (Perkin Elmer). […] IC50's were determined by fitting a sigmoidal curve to % inhibition of control versus Log10 compound concentration.
(Bead proximity is the source of the signal in Alpha formats.)

Assay [2] has as its system p-IKKα levels in L363 (NIK translocated multiple myeloma) cells. Put plainly: Effect of compounds on p-IKKα levels in L363 cells (AlphaLISA SureFire Ultra). The format is cell-based, human. The following applies: Homo sapiens, L-363, 6 h, BAFF stimulated, MG132, 6 h, average of values, read-out: Assay 2 IC50. How it is done: Effect of Compounds on p-IKKα Levels in L363 (NIK Translocated Multiple Myeloma) Cells
All compounds tested were dissolved and serially diluted in DMSO, 1:3 dilution for 11 points in an Echo compatible plate. 100% DMSO was added to columns 12 and 24 of the plate to serve as high and low signal controls. This compound plate was used to spot 20 nL of compound or DMSO into a Greiner 384 well TC plate (781080). The final DMSO concentration was 0.3% (v/v) in cell assays. Human L363 cells (ATCC) were cultured in RPM11640 medium supplemented with GlutaMax, non-essential amino acids, sodium pyruvate and 10% fetal bovine serum. Cells were routinely maintained at densities of […] at 37° C. in a humidified 5% CO2 atmosphere incubator. Cells were passaged twice a week splitting back to obtain the low density. The day before the assay, cells were washed twice in HBSS (Hank's Balanced Salt Solution), resuspended in Dulbecco's Modified Eagle Medium (DMEM)+0.5% IgG and protease free BSA (Jackson Immuno Research Laboratories), +/−250 ng/ml recombinant human B-cell activating factor (BAFF/BLyS/TNFSF13B) and incubated overnight at 37° C. in a humidified 5% CO2 atmosphere (bulk stimulation with or without BAFF). The next day, the cell concentration was adjusted to 1×10^7 cells/ml in DMEM+/−250 ng/ml BAFF+/−10 μM MG132 and plated at 10 μl/well into compound or DMSO spotted 384 well TC plates. Seeded cells were incubated at 37° C. in a humidified 5% CO2 atmosphere for 6 h. After 6 h, the plates were removed from the incubator and cell lysis was achieved by the addition of 2.5 μl 5× lysis buffer containing protease and phosphatase inhibitors, followed by shaking on a plate shaker at room temperature for 15 min. At the end of this incubation, lysed cells were sequentially treated and incubated with acceptor and donor bead mixes according to the manufacturer's protocol for a 1 plate/2-incubation suspension cell assay (AlphaLISA SureFire Ultra p-IKKa (Ser 176/180) Assay Kit (Perkin Elmer). Plates were read using an EnVision® Multilabel Plate Reader (Perkin Elmer). Within an experiment, a concentration response curve for each compound was run in duplicate. The signal obtained in the test wells was normalized using high signal (BAFF stimulated cells, DMSO, MG132) and low signal (unstimulated cells, DMSO) controls. To determine the IC50, a sigmoidal curve was fitted to the plot of % inhibition versus Log10 compound concentration.

As a reminder, the IC50 is the concentration at which inhibition is half-maximal. With `CC(C)(O)C#Cc1cccc(-c2ncc3ccnc(N)c3n2)c1` [Example 35, 4-[3-(8-Aminopyrido[3,4-d]pyrimidin-2-yl)phenyl]-2-methyl-but-3-yn-2-ol], the concentration for half-maximal inhibition (IC50) in assay [1] is 0.015 µM; in assay [2] it was 0.7 µM.
As to `COc1cc(-c2cccc(C#C[C@]3(O)CCN(C)C3=O)c2)cc2c(N)ncnc12` [Example 114, (R)-3-((3-(4-Amino-8-methoxyquinazolin-6-yl)phenyl)ethynyl)-3-hydroxy-1-methylpyrrolidin-2-one], the IC50 was ≤ 0.0005 µM in assay [1] and 0.12 µM in assay [2].
Take `CN1CC[C@](O)(C#Cc2cccc(-c3cc(Br)c4ncnc(N)c4n3)c2)C1=O` [Example 254, (S)-3-((3-(4-Amino-8-bromopyrido[3,2-d]pyrimidin-6-yl)phenyl)ethynyl)-3-hydroxy-1-methylpyrrolidin-2-one]: the values for the IC50 in assay [1] and in assay [2] were 0.23 µM and 1.33 µM, respectively.
With `Cc1nc(N)c2nc(-c3cccc(C#C[C@]4(O)CCN(C)C4=O)c3)c(C)cc2n1` [Example 178, (R)-3-((3-(4-Amino-2,7-dimethylpyrido[3,2-d]pyrimidin-6-yl)phenyl)ethynyl)-3-hydroxy-1-methylpyrrolidin-2-one], the values for the IC50 in assay [1] and in assay [2] were 0.018 µM and 0.82 µM, respectively.
As to `CN1CC[C@@](O)(C#Cc2cccc(-c3ccc4[nH]nc(N)c4c3)c2)C1=O` [Example 174, (R)-3-[2-[3-(3-Amino-1H-indazol-5-yl)phenyl]ethynyl]-3-hydroxy-1-methyl-pyrrolidin-2-one], the IC50 was 0.83 µM in assay [1] and > 5 µM in assay [2].
The corresponding values for `CN1CC[C@@](O)(C#Cc2cccc(-c3cc(Cl)c4ncnc(N)c4c3)c2)C1=O` [Example 117, (R)-3-((3-(4-Amino-8-chloroquinazolin-6-yl)phenyl)ethynyl)-3-hydroxy-1-methylpyrrolidin-2-one] are ≤ 0.0005 µM and 0.033 µM.
For the molecule `CN1CC[C@@](O)(C#Cc2cccc(-c3cc(OCCC(F)(F)F)c4ncnc(N)c4n3)c2)C1=O` [Example 306, (R)-3-[2-[3-[4-Amino-8-(3,3,3-trifluoropropoxy)pyrido[3,2-d]pyrimidin-6-yl]phenyl]ethynyl]-3-hydroxy-1-methyl-pyrrolidin-2-one], the IC50 in assay [1] came to 0.0019 µM; in assay [2] it was 0.026 µM.
In the case of `Cc1nnc([C@](C)(O)C#Cc2ccc(C)c(-c3ccc4ccnc(N)c4c3)c2)o1` [Example 78, (R)-4-[3-(1-Amino-7-isoquinolyl)-4-methyl-phenyl]-2-(5-methyl-1,3,4-oxadiazol-2-yl)but-3-yn-2-ol], the values for the IC50 in assay [1] and in assay [2] were 0.84 µM and > 5 µM, respectively.
Taken in the same sequence, the figures for `CN1CC[C@](C#Cc2cccc(-c3ccc4ncnc(N)c4n3)c2)(C(F)F)C1=O` [Example 204, (R)-3-((3-(4-Aminopyrido[3,2-d]pyrimidin-6-yl)phenyl)ethynyl)-3-(difluoromethyl)-1-methylpyrrolidin-2-one] were 0.021 µM and 1.06 µM.
The corresponding values for `CN1CC[C@@](O)(C#Cc2cccc(-c3ccc4ncnc(NC5CCC5)c4n3)c2)C1=O` [Example 236, (R)-3-((3-(4-(Cyclobutylamino)pyrido[3,2-d]pyrimidin-6-yl)phenyl)ethynyl)-3-hydroxy-1-methylpyrrolidin-2-one] are 0.057 µM and 1.37 µM.
On to `C=Cc1cc(-c2cccc(C#C[C@]3(O)CCN(C)C3=O)c2)nc2c(N)ncnc12` [Example 314, (R)-3-((3-(4-Amino-8-vinylpyrido[3,2-d]pyrimidin-6-yl)phenyl)ethynyl)-3-hydroxy-1-methylpyrrolidin-2-one], for which the IC50 in assay [1] came out at 0.0029 µM; in assay [2], 0.014 µM.
For `Cc1nc(-c2cccc(C#C[C@@](C)(O)c3nccs3)c2)nc2c(N)nccc12` [Example 48, (R)-4-(3-(8-Amino-4-methylpyrido[3,4-d]pyrimidin-2-yl)phenyl)-2-(thiazol-2-yl)but-3-yn-2-ol], the IC50 is ≤ 0.0005 µM in assay [1] and 0.016 µM in assay [2].
